Test results reported in patent US4663342A, “Pharmaceutical composition and method for immunopotentiation” (Zaidan Hojin Biseibutsu Kagaku Kenkyu Kai, priority 1984, dated 1987).

How the values were obtained:
[1] = tested on: mice bearing Ascites Sarcoma 180 tumor; test: D.T.H. response to picryl chloride (ear thickness) in tumor-bearing mice; type: in vivo; conditions: for Increase in ear thickness: 24 h after picryl chloride challenge; for T/C (%): ear thickness increase vs control = 100%
Method: In mice bearing Ascites Sarcoma 180 tumor, the effect of actinonin on the D.T.H. response to picryl chloride was investigated. 10^6 Cells of Ascites Sarcoma 180 were transplanted intraperitoneally into CDF1 mice (12-week-old, female, 5 mice per group). The day of this transplantation was designated as Day 0. […] Then, 5.0 mg/kg, 0.5 mg/kg, 0.05 mg/kg or 0.005 mg/kg of actinonin dissolved in physiological saline was orally administered once daily from Day 1 to Day 8, except that on Days 5 and 6 the test compound was not administered. During this period of Day 1 to Day 8, the control group of mice (untreated) was given physiological saline only. On day 8, the right ear was challenged with 20 μl of a 1% olive oil solution of picryl chloride which was absorbed to an absorbent cotton mass cut to a size of 10 mm×5 mm×1 mm. Twenty-four hours after the challenge, the thickness of the ear was measured with a dial gauge. On the other hand, the control animals (untreated) were challenged on Day 8 with picryl chloride and physiological saline in accordance with the same procedure, but without having been treated with the test compound, and the thickness of the ear of the control animals was measured in the same way. The increase in the thickness of ear for the control group of mice was evaluated to be 100%. The increase (T) in the thickness of the ear for the group of mice treated with the test compound was compared with that (C) for the control group of mice to evaluate the rate (T/C, %) of the increase in the thickness of the ear, whereby the cellular immunity-potentiating activity of the compound under test was estimated.

[2] = tested on: gram-positive bacteria; conditions: against gram-positive bacteria; cited from earlier work
[3] = tested on: mice; test: Acute toxicity test in mice by intravenous injection; type: in vivo; conditions: i.v. dosage of 400 mg/kg
Method: Acute toxicity tests in mice by intravenous injection have shown that no deaths are caused by the actinonin compound of the formula (I) at an i.v. dosage of 400 mg/kg. […] The actinonin compound of the formula (I) is therefore useful as an immunopotentiator and anti-tumor immunomodulator or as adjuvants to various chemotherapeutic agents for use in the treatment of carcinomas.

[4] = tested on: CDF1 mice immunized with sheep red blood cells (SRBC); test: Delayed Type Hypersensitivity (D.T.H.) footpad test in normal mice immunized with SRBC; type: in vivo; conditions: for Increase in footpad thickness: 24 h after SRBC challenge; for T/C (%): footpad thickness increase vs control = 100%
Method: Effect of actinonin on the cellular immunity was investigated by measuring the Delayed Type Hypersensitivity (D.T.H.) (see […] and T. E. Miller: "J. Exp. Med.", 139, 1529-1539 (1974)) using mice immunized with sheep red blood cells (SRBC) as the antigen inoculated to the footpad of the mice. Thus, 10^8 SRBC suspended in 0.05 ml of physiological saline was inoculated by subcutaneous injection into a subdermal site of a hind footpad of CDF1 mice (6 mice per group, female, 8-weeks old) to make immunization. At the time of this immunization, an aqueous solution containing 5 mg/kg, 0.5 mg/kg, 0.05 mg/kg or 0.005 mg/kg of actinonin was administered intraperitoneally at a single dose to each test mice. 4 Days after the immunization, 10^8 SRBC in 0.05 ml of physiological saline were injected subcutaneously into the other hind footpad of the test mice for secondary challenge of the D.T.H. response. 24 Hours after the challenge, the thickness (in mm) of the hind footpad having received the challenge of SRBC was measured with vernier caliper. At the same time, the thickness of footpad of control mice which had received the injection of the SRBC and physiological saline without the administration of the test compound was also measured in each mouse. The increase in footpad thickness of the animals treated was calculated by the following equation: [formula] The effect of actinonin on the DTH response was evaluated by the following equation: [formula] […] In this way, the cell-mediated immunity potentiating effect of the test compound was evaluated. For comparison purpose, bestatin was also tested in the same manner as above.

[5] = 0.5 mg/kg orally once daily Day 1 to Day 8 (not Days 5, 6)
[6] = 0.5 mg/kg i.p. single dose at immunization

Structure (SMILES)	Increase in ear thickness ([1]; 0.005 mg/kg orally once daily Day 1 to Day 8 (not Days 5, 6))	T/C (%) ([1]; 0.005 mg/kg orally once daily)	Increase in ear thickness ([1]; 0.05 mg/kg orally once daily Day 1 to Day 8 (not Days 5, 6))	T/C (%) ([1]; 0.05 mg/kg orally once daily)	Increase in ear thickness [1, 5]	T/C (%) ([1]; 0.5 mg/kg orally once daily)	Increase in ear thickness ([1]; 5 mg/kg orally once daily Day 1 to Day 8 (not Days 5, 6))	T/C (%) ([1]; 5 mg/kg orally once daily)	Antibacterial activity [2]	Deaths in acute toxicity test [3]	Increase in footpad thickness ([4]; 0.005 mg/kg i.p. single dose at immunization)	T/C (%) ([4]; 0.005 mg/kg i.p. single dose)	Increase in footpad thickness ([4]; 0.05 mg/kg i.p. single dose at immunization)	T/C (%) ([4]; 0.05 mg/kg i.p. single dose)	Increase in footpad thickness [4, 6]	T/C (%) ([4]; 0.5 mg/kg i.p. single dose)	Increase in footpad thickness ([4]; 5 mg/kg i.p. single dose at immunization)	T/C (%) ([4]; 5 mg/kg i.p. single dose)
CCCCC[C@H](CC(=O)NO)C(=O)N[C@H](C(=O)N1CCC[C@H]1CO)C(C)C [Actinonin]	4.70 ± 0.67 × 10^-3 cm	96.9%	6.80 ± 0.84 × 10^-3 cm	140.2%	7.08 ± 1.66 × 10^-3 cm	146.0%	4.60 ± 1.19 × 10^-3 cm	94.8%	exhibits antibacterial activity	no deaths	9.2 ± 1.15 × 0.1 mm	107%	10.4 ± 1.40 × 0.1 mm	121%	11.4 ± 1.80 × 0.1 mm	133%	11.9 ± 1.44 × 0.1 mm	138%
CC(C)C[C@H](NC(=O)[C@@H](O)[C@H](N)Cc1ccccc1)C(=O)O [Bestatin, reference compound]	–	–	–	–	6.75 ± 1.51 × 10^-3 cm	139.2%	–	–	–	–	–	–	–	–	12.8 ± 1.47 × 0.1 mm	149%	–	–
